# Columns and labels:
# systolic blood pressure = experiment: Antihypertensive activity, reduction in systolic blood pressure, single oral medication, unanesthetized spontaneous hypertensive rat; type: in vivo; conditions: P.O., single dose, unanesthetized SH rat
# Procedure: Antihypertensive activity was determined on the basis of the observed reduction in systolic blood pressure measured according to the method of H. Kersten et al., J. Lab. and Clin. Med. 32, 1090 (1947) following a single oral medication in the unanesthetized spontaneous hypertensive rat described by Okamato et al., Japan Circulation J. 27, 282 (1963).
# ^a AHD40 = single oral dose required to induce a 40 mm. average
# papillary muscle = experiment: Cardiotonic test procedure IB, isolated cat papillary muscle; conditions: in vitro
# Procedure: The efficacy of this compound was judged, in vitro, on the basis of percent increase in contractile force in isolated cat atria and papillary muscle and, in vitro, on the basis of percent increase in cardiac contractile force in the intact anesthetized dog. Male cats 0.8 to 1.5 kg. were anethetized with α-chloralose (80 mg./kg. i.p.). The chest was opened and the heart excised. The heart was dipped and shaken in Tyrode's solution for the removal of blood from the cavities. The right ventricle was then slit open and the small and thin (about 1 mm. in diameter and 4 to 7 mm. in length) papillary muscles were dissected out. A silver wire was attached to each of the two ends of the papillary muscle. The ventricular end was attached to a platinum electrode and mounted in a tissue bath containing Tyrode's solution described above. The silver wire on the valvular end of the muscle was attached to a force displacement transducer for the measurement of the force and rate of muscle contraction. The muscle was stimulated at a rate of 3 beats/sec. by suprathreshold rectangular pulses of 5 millisecond duration. The rest of the procedure was continued as described above.
# β-adrenergic = β-adrenergic blocking activity, inhibition of isoproterenol-elicited heart rate increase in pentobarbitalized dog; type: in vivo; conditions: i.v.
# Procedure: The β-adrenergic blocking activity was determined in the pentobarbitalized dog as judged by the ability of the test compound to inhibit the elevation in heart rate elicited by a 0.5 mcg./kg. i.v. injection of isoproterenol.
# ^e AED50 = approximate intravenous dose required to cause 50%
# blood pressure = experiment: Antihypertensive activity, sustained lowering of blood pressure, repeated oral medication, unanesthetized trained renal hypertensive dog; type: in vivo
# Text: Antihypertensive activity was also judged on the basis of sustained reduction of blood pressure observed in the unanesthetized trained renal hypertensive dog following repeated oral medication according to the procedure described by Lape et al., Arch.
# ^b MED10 = minimum repeated oral daily dose required to effect a
# isolated cat atria = experiment: Cardiotonic test procedure I, isolated cat atria; conditions: for Increase in right atrial force / Increase in right atrial rate: in vitro
# Procedure: The efficacy of this compound was judged, in vitro, on the basis of percent increase in contractile force in isolated cat atria and papillary muscle and, in vitro, on the basis of percent increase in cardiac contractile force in the intact anesthetized dog. Male cats weighing from 0.8 to 1.5 kg. were anesthetized with α-chloralose (80 mg./kg. i.p.). The chest was opened, the heart excised and the two atria dissected. A silk suture was tied to each of two opposite sides of the right atrium. One side of the atrium was tied to a glass rod and then mounted in a 50 ml. organ bath filled with Tyrode's solution. […] The transducer was then connected to a Grass polygraph and the force and rate of atrial contraction was recorded continuously. The left atrium was treated similarly using silver wire instead of silk sutures. The silver wire also served as a stimulating electrode. Both atria were mounted in the same bath. The right atrium was beating spontaneously due to the presence of the sinoatrial node, while the left atrium was stimulated electrically at a rate of 3 beats/sec. by suprathreshold rectangular pulses of 5 millisecond duration. The Tyrode's solution bathing the atria was of the following composition (in mM): NaCl 136.87, KCl 5.36, NaH2 PO4 0.41, CaCl2 1.80, MgCl2 6H2 O 1.05, NaHCO3 11.90, glucose 5.55 and EDTA 0.04. […] The preparation was left to equilibrate for one hour before any drug was added. The bathing fluid was changed 3 to 4 times during the equilibration time. At the end of equilibration period, the drug dissolved in a vehicle or the vehicle alone was added to the tissue bath and the full response recorded. The vehicle used was Tyrode' s solution to which, if required, sufficient acid was added to cause solution of the drug. […] Generally, a dose response study of at least 3 doses was done in the same preparation.
# [1] = test system: cardiac contractile force; experiment: Cardiotonic test procedure II, intact anesthetized dog; type: in vivo, mongrel dogs
# Procedure: The efficacy of this compound was judged, in vitro, on the basis of percent increase in contractile force in isolated cat atria and papillary muscle and, in vitro, on the basis of percent increase in cardiac contractile force in the intact anesthetized dog. The in vivo test procedure used is described as follows: Mongrel dogs of both sexes and varying in weight from 9 to 15 kg. were anesthetized with 30 mg./kg. pentobarbital sodium administered intravenously. The trachea was exposed and cannulated. The tracheal cannula was then attached to a Harvard respiratory pump using room air. The right femoral artery and vein were cannulated. […] The venous cannula was used for the intravenous administration of drugs. Pin electrodes were attached to the right forelimb and left hindlimb. The electrodes were then connected to a Grass polygraph for the continuous recording of the standard limb lead II electrocardiogram. A ventro-dorsal incision at the third inter-costal space was made, the ribs laterally retracted and the pericardium slit open to expose the myocardium. The base of the aorta was dissected and a flow probe was fitted around it. The flow probe was attached to a square wave electromagnetic flowmeter (Carolina Medical Electronics). The flowmeter was then connected to a Grass polygraph for the continuous recording of aortic blood flow. This flow was used as an index of cardiac output (actual cardiac output is aortic blood flow+coronary blood flow). Cardiac contractile force was measured by suturing a Walton-Brodie strain gauge to the wall of the right ventricle. At the end of the surgical procedure, the animal was left to rest and equilibrate for one hour with continuous recording of blood pressure, EKG, cardiac contractile force and aortic blood flow. After the equilibration period, the vehicle or the drug dissolved in the vehicle was administered by intravenous infusion (i.v. inf.), intravenous bolus (i.v. bol.) or intraduodenally (i.d.) and the response of all the parameters measured to drug administration was recorded continuously for different periods of times depending on the route of drug administration. When the route of administration was i.v. inf., the drug was administered until a peak effect was reached and infusion was then maintained for ten minutes. The above-described test systems were standardized using dopamine.
# arrhythmia = experiment: Antiarrhythmic activity (in words, test not specified); conditions: in vivo
# Procedure: The test procedures were carried out as follows.
compound,measurement,setting,value
"COc1ccc(CCC(C)NCC(=O)c2ccc(O)c([S+](C)[O-])c2)cc1.Cl (stereo not shown) [Example 26B, 4'-hydroxy-2-[3-(4-methoxyphenyl)-1-methylpropyl]amino-3'-(methylsulfinyl)-acetophenone hydrochloride]",Antihypertensive activity SH Rat AHD40 (single oral dose required to induce a 40 mm. average reduction in systolic blood pressure),systolic blood pressure,ca. 40.0 mg./kg.
same,Increase in papillary muscle force,papillary muscle; 10 /ml.,7%
same,Increase in papillary muscle force,papillary muscle; 30 /ml.,23%
same,Increase in papillary muscle force,papillary muscle; 100 /ml.,38%
same,Actual percentage inhibition of heart rate increase above control level observed at the indicated dose,β-adrenergic; 1.0 mg./kg.,18%
same,Dog β-blockade AED50 (approximate intravenous dose for 50% inhibition of isoproterenol-elicited heart rate increase),β-adrenergic; pentobarbitalized dog,> 1.0 mg/kg
same,Renal Hypertensive Dog MED10 (minimum repeated oral daily dose for sustained lowering of blood pressure of 10% or greater),blood pressure; administered once per day,> 20 mg/kg
same,Actual percentage reduction in blood pressure observed at the indicated dose,"blood pressure; once per day, 20 mg./kg.",0
same,Increase in right atrial force,isolated cat atria; 10 /ml.,1%
same,Increase in right atrial rate,isolated cat atria; 10 /ml.,0%
same,Increase in right atrial force,isolated cat atria; 30 /ml.,5%
same,Increase in right atrial rate,isolated cat atria; 30 /ml.,3%
same,Increase in right atrial force,isolated cat atria; 100 /ml.,6%
same,Increase in right atrial rate,isolated cat atria; 100 /ml.,8%
same,Cardiotonic activity (in words),isolated cat atria; one or more of the cardiotonic test procedures,cardiotonic activity
same,Increase in cardiac contractile force,"[1]; 1.0 mg./kg., first series",22%
same,Increase in cardiac contractile force,"[1]; 1.0 mg./kg., second, similar series",4%
same,Increase in cardiac contractile force,"[1]; 3.0 mg./kg., first series",25%
same,Increase in cardiac contractile force,"[1]; 3.0 mg./kg., second, similar series",12%
same,Increase in cardiac contractile force,"[1]; 10.0 mg./kg., first series",59%
same,Increase in cardiac contractile force,"[1]; 10.0 mg./kg., second, similar series",50%
same,Antiarrhythmic activity (in words),arrhythmia,antiarrhythmic activity

# — patent US4374149A, “α-{[(Arylalkyl)amino]alkyl}-4-hydroxy-3-(lower-alkylsul finyl)benzenemethanols” (Sterling Drug Inc., priority 1978, dated 1983)
